Experimental data: ChEMBL document CHEMBL1201862, “PubChem BioAssay data set” (2004)
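Growth conditions: 96-well plates. Treatment: test compound, 48 hours, 5 concentrations. Analysis: linear interpolation between bracketing concentrations; unreached endpoints set to highest concentration. Abbreviation: GI50, concentration required for 50% inhibition of growth.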 The source made the active and inactive calls. Cut-off read from the data, not from the text of the source: active = GI50 up to about 1.1 µM and inactive = higher.

How the values were obtained:
Experiment in all cases: NCI anticancer screen, dose series, 48 h
SF-295 = system: SF-295
SR = system: SR
MDA-N = system: MDA-N
Malme-3M = system: Malme-3M
OVCAR-4 = system: OVCAR-4
M14 = system: M14
SW-620 = system: SW-620
A549 = system: A549
SF-539 = system: SF-539
SK-MEL-5 = system: SK-MEL-5
HOP-92 = system: HOP-92
OVCAR-8 = system: OVCAR-8
KM12 = system: KM12
U-251 = system: U-251
UACC-257 = system: UACC-257
RPMI-8226 = system: RPMI-8226
CCRF-CEM = system: CCRF-CEM
NCI-H460 = system: NCI-H460
SNB-19 = system: SNB-19
DU-145 = system: DU-145

| Compound | GI50 (SF-295) | GI50 (SR) | GI50 (MDA-N) | GI50 (Malme-3M) | GI50 (OVCAR-4) | GI50 (M14) | GI50 (SW-620) | GI50 (A549) | GI50 (SF-539) | GI50 (SK-MEL-5) | GI50 (HOP-92) | GI50 (OVCAR-8) | GI50 (KM12) | GI50 (U-251) | GI50 (UACC-257) | GI50 (RPMI-8226) | GI50 (CCRF-CEM) | GI50 (NCI-H460) | GI50 (SNB-19) | GI50 (DU-145) |
| --- | --- | --- | --- | --- | --- | --- | --- | --- | --- | --- | --- | --- | --- | --- | --- | --- | --- | --- | --- | --- |
| CN1CC[C@]2(c3cccc(O)c3)CC(=O)/C(=C/c3ccc(Cl)c(Cl)c3)[C@@H]1C2 | 1.52 µM (inactive) | 0.281 µM (active) | 0.552 µM (active) | 1.45 µM (inactive) | 1.47 µM (inactive) | 1.15 µM (inactive) | 1.14 µM (inactive) | 1.6 µM (inactive) | 2.5 µM (inactive) | 1.55 µM (inactive) | 1.22 µM (inactive) | 1.49 µM (inactive) | 0.575 µM (active) | 0.975 µM (active) | 1.49 µM (inactive) | 0.262 µM (active) | 0.337 µM (active) | 1.28 µM (inactive) | 1.75 µM (inactive) | 1.65 µM (inactive) |
| CCOC(=O)[C@H]1C[C@]23CN(C(=O)OC(C)(C)C)CC[C@H]2CCC2(SCCCS2)[C@@H]3N1C | 38.3 µM (inactive) | 24 µM (inactive) | 30.1 µM (inactive) | 28.4 µM (inactive) | 16 µM (inactive) | 30.8 µM (inactive) | 47.8 µM (inactive) | 37.8 µM (inactive) | 29.6 µM (inactive) | 18.5 µM (inactive) | 14.1 µM (inactive) | 37.8 µM (inactive) | 33.3 µM (inactive) | 34.4 µM (inactive) | 25.6 µM (inactive) | 20.4 µM (inactive) | 29.1 µM (inactive) | 33.3 µM (inactive) | 76 µM (inactive) | 54.3 µM (inactive) |
| O=P(Oc1ccccc1)(Oc1ccccc1)Oc1c[nH]c2ccccc12 | 3.28 µM (inactive) | 25.4 µM (inactive) | 11 µM (inactive) | 16.2 µM (inactive) | 3.13 µM (inactive) | 11.3 µM (inactive) | 13.4 µM (inactive) | 11.1 µM (inactive) | 11.4 µM (inactive) | 11.3 µM (inactive) | 1.57 µM (inactive) | 13.5 µM (inactive) | 19.4 µM (inactive) | 12.3 µM (inactive) | 8.55 µM (inactive) | 0.103 µM (active) | 0.141 µM (active) | 12.8 µM (inactive) | 13.1 µM (inactive) | 36.6 µM (inactive) |
| NC1=NCC(CN2CCOCC2)O1 (stereo not given) | > 100 µM (inactive) | > 100 µM (inactive) | > 100 µM (inactive) | > 100 µM (inactive) | > 100 µM (inactive) | > 100 µM (inactive) | > 100 µM (inactive) | > 100 µM (inactive) | > 100 µM (inactive) | > 100 µM (inactive) | > 100 µM (inactive) | > 100 µM (inactive) | > 100 µM (inactive) | > 100 µM (inactive) | > 100 µM (inactive) | > 100 µM (inactive) | > 100 µM (inactive) | > 100 µM (inactive) | > 100 µM (inactive) | > 100 µM (inactive) |
